Where “and” joins values, the source holds several entries; their conditions need not be identical. Identical values can stand only once.
Columns and labels:
[1] = system: Immature primary cortical neurons; assay: Oxidative toxicity (HCA) and neuron viability assay (MTT); type: cell-based, Sprague Dawley rats; settings: 0.5 μM, 5 mM HCA, MTT
H3K4Me2 in A549 cells = assay: Western blot of H3K4Me2 in A549 cells; type: cell-based; settings: 48 h
MAO-B = molecular target: T1, MAO-B (Homo sapiens, UniProt P27338); assay: MAO-B activity and inhibition assay (peroxidase-coupled, tyramine); type: biochemical
T1 construct: purchased Sigma M 7441
T1 sequence (P27338 1-520): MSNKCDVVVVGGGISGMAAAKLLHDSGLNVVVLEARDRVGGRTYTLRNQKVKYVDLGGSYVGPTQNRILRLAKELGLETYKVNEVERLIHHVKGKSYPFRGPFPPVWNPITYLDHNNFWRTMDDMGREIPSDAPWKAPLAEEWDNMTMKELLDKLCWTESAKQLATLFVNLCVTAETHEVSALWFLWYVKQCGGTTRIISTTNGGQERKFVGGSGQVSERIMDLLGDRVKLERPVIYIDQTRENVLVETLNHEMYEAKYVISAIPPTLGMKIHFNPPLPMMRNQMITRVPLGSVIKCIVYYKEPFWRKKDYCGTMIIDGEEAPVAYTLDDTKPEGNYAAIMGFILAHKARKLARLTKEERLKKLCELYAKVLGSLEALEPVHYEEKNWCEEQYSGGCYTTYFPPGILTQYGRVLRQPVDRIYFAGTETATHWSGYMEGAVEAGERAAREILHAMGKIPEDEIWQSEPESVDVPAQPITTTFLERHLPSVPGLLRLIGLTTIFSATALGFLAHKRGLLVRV

MAO-A = molecular target: T2, MAO-A (Homo sapiens, UniProt P21397); assay: MAO-A activity and inhibition assay (peroxidase-coupled, tyramine); type: biochemical
T2 construct: purchased Sigma M 7316
T2 sequence (P21397 1-527): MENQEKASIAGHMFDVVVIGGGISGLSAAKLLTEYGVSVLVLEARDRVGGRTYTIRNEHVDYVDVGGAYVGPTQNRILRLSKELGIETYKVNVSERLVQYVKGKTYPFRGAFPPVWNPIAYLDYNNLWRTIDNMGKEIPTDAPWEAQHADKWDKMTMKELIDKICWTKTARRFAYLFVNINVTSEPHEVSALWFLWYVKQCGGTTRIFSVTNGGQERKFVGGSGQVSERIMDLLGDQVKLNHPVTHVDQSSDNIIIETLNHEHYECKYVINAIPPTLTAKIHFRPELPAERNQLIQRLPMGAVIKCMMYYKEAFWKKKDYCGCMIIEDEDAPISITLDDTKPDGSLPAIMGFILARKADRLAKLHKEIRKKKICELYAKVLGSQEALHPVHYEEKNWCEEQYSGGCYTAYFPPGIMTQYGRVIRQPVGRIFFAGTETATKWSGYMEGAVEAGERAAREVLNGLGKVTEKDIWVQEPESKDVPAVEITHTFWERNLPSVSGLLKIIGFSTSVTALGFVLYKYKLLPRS

H3K4Me2 in LNCaP cells = assay: Western blot of histone H3 marks in LNCaP cells; type: cell-based
H3K4Me2 in MB-231 cells = assay: Western blot of H3K4Me2 in MB-231 cells; type: cell-based; settings: 48 h
H460 cells = assay: [3H] thymidine incorporation assay in H460 cells; type: cell-based; settings: Homo sapiens, NCI-H460, 48 h, read-out: IC50 of cellular proliferation rate (3H-thymidine incorporation)
H3K4Me2 in H460 cells = assay: Western blot of H3K4Me2 in H460 cells; type: cell-based; settings: 48 h, compared with LNCaP
GST-LSD1 [2] = molecular target: T3, GST-LSD1 (Homo sapiens, UniProt O60341); assay: MassSQUIRM LSD1 inhibition assay; type: biochemical; parameters: made in house; host or cells: E. coli; settings: 50 μM inhibitor, 215 nM GST-LSD1, 30 min, 25° C.
GST-LSD1 [3] = molecular target: T3, GST-LSD1
LNCaP cells = assay: [3H] thymidine incorporation assay in LNCaP cells; type: cell-based; settings: Homo sapiens, 48 h, read-out: IC50 of cellular proliferation rate (3H-thymidine incorporation)

k(inact) (MAO-B): 0.26 ± 0.14 min⁻¹ | k(inact) (MAO-A): 0.30 ± 0.11 min⁻¹ | EC50 (H3K4Me2 in LNCaP cells; Homo sapiens, 48 h, Western blot, read-out: EC50 of increase in H3K4Me2 signal): ~2 µM | IC50 (H460 cells): 14 µM | LSD1 inhibition in MassSQUIRM assay (in words) (GST-LSD1 [2]): very substantial LSD1 inhibition | k(inact) (GST-LSD1 [3]; GST-LSD1, peroxidase-coupled assay, dihydrochloride): 0.15 min⁻¹ and 0.15 ± 0.017 min⁻¹ | LSD1 inhibitory potency (in words) (GST-LSD1 [3]; structure-activity comment on Table 1): most potent LSD1 inhibitor | IC50 (LNCaP cells): 16 µM
SMILES: Cl.Cl.NNCCc1ccc(NC(=O)CCCc2ccccc2)cc1 [Compound 12d, N-[4-(2-Hydrazinylethyl)phenyl]-4-phenylbutanamide dihydrochloride]
survival of neurons after HCA-treatment [1]: significantly enhanced survival of neurons | concentration required for reproducible increases in H3K4Me2 (H3K4Me2 in A549 cells): 20 µM | time of compound exposure at which changes in H3K4Me2 could be detected (H3K4Me2 in LNCaP cells; 10 μM): ≤ 6 h | concentration required for reproducible increases in H3K4Me2 (H3K4Me2 in MB-231 cells): 20 µM | effects on H3K4Me2 levels (in words) (H3K4Me2 in H460 cells): comparable dose-response effects
